Measured values from patent publication US20220273823A1, “THERANOSTIC CONJUGATES” (Ariel Scientific Innovations Ltd., priority 2019, published 2022).
Read-outs that look alike come from different tables or passages of the source.

Legend:
[1] = Spectral properties of RD, IRD-CLB and 5-CLB in PB and CM; type: physicochemical
Protocol: The spectral properties of the dye RD and its conjugates IRD-CLB and 5-CLB were measured at the concentrations (c) of 0.6 μM in 10 mM phosphate buffer pH 7.5 (PB) and cell medium pH 7.5 (CM), both containing 20% of acetonitrile (ACN) to improve solubility of the compounds.
Table 2 presents the absorption (λmaxAb) and emission (λmaxFl) maxima, extinction coefficients (ε) and fluorescence quantum yields (ΦF) of the RD dye and IRD-CLB and 5-CLB conjugates measured at 25° C. in 10 mM phosphate buffer pH 7.5 (PB) and cell medium pH 7.5 (CM).
The biodegradable ester linker (BL) in IRD-CLB and 5-CLB can be hydrolyzed to release free CLB and, accordingly, IRD turns into RD, which is accompanied by a noticeable change in the spectral properties. The time-dependent emission spectra were recorded in PB and CM (see, FIGS. 9A-D) using the excitation wavelengths 720 nm and 532 nm. The first one enabled monitoring of the decrease in the concentration of IRD-CLB and 5-CLB, while the second one—the increase in the concentration of RD and OctA-RD. Only the NIR fluorescence of IRD-CLB and 5-CLB was detected, when excited at 720 nm; and only the red fluorescence of RD and OctA-RD was detected, when excited at 532 nm.
Absorption spectra were recorded on a Jasco V-730 UV-Vis spectrophotometer and the fluorescence spectra were measured on Edinburgh FS5 spectrofluorometer. The absorption and fluorescence spectra and the quantum yields (ΦF) were measured in a 1-cm quartz cell at ˜0.5 μM dye concentrations in PB 10 mmol buffer pH 7.4 at 25° C. and cell medium pH 7.4. Excitation wavelength was 720 nm and 532 nm. The recorded fluorescence spectra were corrected using the wavelength-dependent instrument sensitivity coefficients. Absorption and emission maxima were measured with accuracy of ±0.3 nm and ±0.5 nm, respectively, and rounded. For the determination of the quantum yields, the integrated relative intensities were measured versus ICG™ in methanol as the reference (ΦF=0.043) and Cy3™ in PBS (ΦF=0.043). The absorbance values measured for the samples and the reference at the excitation wavelength were 0.04-0.06 measured in a 1-cm cell. The absolute quantum yields were calculated according to Equation 1.

[2] = Absorption and emission spectra of XCy, XCy-CLB and OCTA-G-XCy-CLB in PB and CM; type: physicochemical; settings: for λmaxFl: λex 650 nm; for absorption maximum / fluorescence: in PB and CM
Protocol: The absorption and emission spectra of XCy, XCy-CLB and OCTA-G-XCy-CLB were investigated in two different conditions, 10 mM phosphate buffer pH 7.4 containing 10% methanol (PB) and cell medium pH 7.4 containing 10% methanol (CM) (see, Table 1 below). CM was taken as a model of normal physiological conditions during drug delivery in the experiments with cells. A RPMI-1640 standard cell medium that contains 50 mL fetal bovine serum (FBS), 5 mL penicillin (10,000 U/mL), 5 mL streptomycin (10 mg/mL), 5 mL of 200 mM glutamine, and 5.3 mg/L phenol red indicator was utilized. FBS contains enzyme aspartate-aminotransferase that facilitates the ester bond cleavage.
(§1) Absorption spectra were recorded on a Jasco V-730 UV-Vis spectrophotometer and the fluorescence spectra were measured on Edinburgh FS5 spectrofluorometer. The absorption and fluorescence spectra were measured in 1-cm quartz cells at about 0.5 μM dye concentrations in PB 10 mmol buffer pH 7.4 at 25° C. and cell medium pH 7.4. Excitation wavelength was 650 nm. All the solutions were filtered in PVDF 0.45 μm filter before taking spectrum.

[3] = Real time fluorescence microscopy monitoring of CLB release in CHO cells (negative control); type: cell-based, Chinese hamster; settings: hamster, pH 7.4, 10 min incubation with 10 μM, 37° C., read-out: CLB cleavage half-life τ1/2 (converted)
Protocol: (§2) In the next step, the inventors investigated the performance of OCTA-G-XCy-CLB in real time monitoring of drug delivery and drug release into human pancreatic cancer cell line (Panc-1). As a negative control, Chinese hamster ovary cell line (CHO) was employed. Panc-1 contains overexpressed somatostatin receptors SSTR-2 and SSTR-5 while the CHO has the decreased number of these receptors. Panc-1 and CHO were incubated at 37° C. for 10 min with 10 μM OCTA-G-XCy-CLB in PBS pH 7.4 containing 3% DMSO and washed thoroughly with PBS pH 7.4 to remove excess conjugate. Then the fluorescence microscopy images were taken over time (FIGS. 7A, B). The fluorescence intensities for both cell lines gradually increase over time signaling the CLB release. […]
(§3) To monitor drug release, Panc-1 and CHO cell lines were grown in six-well culture plates and then washed with PBS (pH 7.4) two times after that incubated for 10 min with 10 μM OCT(N)-G-XCy-CLB in PBS pH 7.4 containing 3% DMSO. […] The washed cell samples were resuspended in PBS and immediately analyzed the fluorescence changes by using fluorescent microscope. […]
(§4) The band intensities in a representative experiment were quantified by creating region of interest (ROI) around each image and the relative fluorescence intensity of each sample was measured (via the “Measure” function) with Image J software.

[4] = Time-dependent absorption/fluorescence CLB cleavage profiles of XCy-CLB and OCTA-G-XCy-CLB in PB and cell medium; type: in vitro ADME; settings: read-out: CLB release half-life τ1/2 (converted)
Protocol: To estimate the rate of the CLB release, the time-dependent absorption and fluorescence spectra of XCy-CLB and OCTA-G-XCy-CLB were measured in PB and CM (see, FIGS. 5A-H). With respect to time, the absorption band at about 600 nm decreases, a new band at about 680 nm increases and a fluorescence band subsequently appears at ˜708 nm (λex=650 nm).
Based of the time-dependent absorption and emission spectra, corresponding drug cleavage profiles were obtained (see, FIGS. 6A-B) and the drug release rates were quantified by half-lives (τ1/2). The cleavage profiles and half-lives obtained spectrophotometrically and spectrofluorometrically almost coincide. […] The release of CLB from OCTA-G-XCy-CLB in CM (τ1/2˜25 min) is […] faster than that in PB τ1/2 ˜2.5 h. Thus, the drug release for both XCy-CLB and OCTA-G-XCy-CLB in CM is much faster compared to PB. The obtained half-lives of the ester bond cleavage in these media were found in good agreement with some reported data. Linkage of OCTA to the conjugate accelerates the drug release by factor of 6 in PB and 1.3 in CM.
as §1

[5] = Real time fluorescence microscopy monitoring of CLB release in Panc-1 cells; type: cell-based; settings: human, pH 7.4, Panc-1, 10 min incubation with 10 μM, 37° C., read-out: CLB cleavage half-life τ1/2
Protocol: as §2, §3, §4

[6] = system: Panc-1; test: XTT cell survival assay (growth inhibition), Panc-1; type: cell-based, human; settings: Panc-1, XTT, up to 25 μM
Protocol: (§5) The cytotoxicity of the peptide-drug conjugates was determined by measuring the mitochondrial enzyme activity, using a commercial XTT assay kit. All samples were prepared in PBS pH 7.4 contained 3% DMSO. The Cells were cultured in micro wells at a concentration 5-10×10^4 cells/well. The cells were washed and fresh cell medium containing different concentrations (up to 25 μM) of the conjugates were added and the cells were incubated for 10 minutes. The cultures were washed and then given a fresh medium and cultured for 48 hours and 72 hours. At the end of the second incubation, XTT reagent was added and the cells were re-incubated for additional 2-4 hours. During that time the absorbencies in the wells were measured with a TECAN Infinite M200 ELISA reader at 480 nm and 680 nm. The difference in the absorbencies measurements at these two wavelengths was used for calculating the percentage Growth Inhibition (GI) in test wells compared to two controls: cells that were exposed to the medium and solvent, and those which were exposed to a solvent-free medium. All the tests were done in triplicate.

[7] = system: CHO; test: XTT cell survival assay (growth inhibition), CHO; type: cell-based, Chinese hamster; settings: up to 25 μM
Protocol: as §5

[8] = PB:ACN (4:1, v/v), 25° C., c=0.6 μM
[9] = CM: cell medium pH 7.4 containing 10% methanol
[10] = PB: 10 mM phosphate buffer pH 7.4 containing 10% methanol

## CN1C(=CC=C2CCCC(=CC=C3N(CCCCCC(=O)O)c4ccccc4C3(C)C)C2=O)C(C)(C)c2ccccc21 [RD, 6-(−3,3-dimethyl-2-(−2-(−2-oxo-3-(2-(−1,3,3-trimethylindolin-2-ylidene)ethylidene)cyclohexylidene)ethylidene)indolin-1-yl)hexanoic acid]
[1]; CM:ACN (4:1, v/v), 25° C.
  ΦF: 2.6%
  λmaxAb: 526 nm
  λmaxFl: 626 nm
[1]; PB:ACN (4:1, v/v), 25° C.
  ΦF: 9.9%
  λmaxFl: 643 nm
[1]; [8]
  λmaxAb: 555 nm

## C[C@@H](O)[C@H](NC(=O)[C@@H]1CSSC[C@H](NC(=O)[C@H](Cc2ccccc2)NC(=O)CCCNC(=O)CCCCC[N+]2=C(/C=C/C3=C4Oc5cc(OC(=O)CCCc6ccc(N(CCCl)CCCl)cc6)ccc5C=C4CCC3)C(C)(C)c3ccccc32)C(=O)N[C@@H](Cc2ccccc2)C(=O)N[C@@H](Cc2c[nH]c3ccccc23)C(=O)N[C@@H](CCCCN)C(=O)N[C@@H]([C@@H](C)O)C(=O)N1)C(N)=O [OCTA-G-XCy-CLB]
[2]; [9]
  λmaxAbs: 604 nm
  λmaxFl: No fl.
[2]; [10]
  λmaxAbs: 604 nm
  λmaxFl: No fl.
[2]
  absorption maximum: ~600 nm
  fluorescence: not detectable
[3]
  half-life at 10 μM: ~2.5 h
[4]; bovine, cell medium (contains esterase), in CM (cell medium pH 7.4, esterase present)
  half-life at 0.5 μM: ~0.417 h
[4]; phosphate buffer (PB), in PB pH 7.4
  half-life at 0.5 μM: ~2.5 h
[5]
  half-life at 10 μM: ~0.417 h
[6]
  Growth Inhibition (GI) / toxicity: significantly elevated growth inhibition compared to CHO

## CC1(C)C(/C=C/C2=C3Oc4cc(OC(=O)CCCc5ccc(N(CCCl)CCCl)cc5)ccc4C=C3CCC2)=[N+](CCCCCC(=O)O)c2ccccc21 [XCy-CLB, (E)-2-(2-(6-((4-(4-(bis(2-chloroethyl)amino)phenyl)butanoyl)oxy)-2,3-dihydro-1H-xanthen-4-yl)vinyl)-1-(5-carboxypentyl)-3,3-dimethyl-3H-indol-1-ium]
[2]; [9]
  λmaxAbs: 602 nm
  λmaxFl: No fl.
[2]; [10]
  λmaxAbs: 598 nm
  λmaxFl: No fl.
[2]
  absorption maximum: ~600 nm
  fluorescence: not detectable
[4]; bovine, in CM (cell medium pH 7.4, esterase present)
  half-life: ~0.667 h
[4]; phosphate buffer, in PB pH 7.4
  half-life: ~8 h

## C[N+]1=C(C=CC2=C(OC(=O)CCCc3ccc(N(CCCl)CCCl)cc3)C(=CC=C3N(CCCCCC(=O)O)c4ccccc4C3(C)C)CCC2)C(C)(C)c2ccccc21 [IRD-CLB, 2-(−2-(−2-((4-(4-(bis(2-chloroethyl)amino)phenyl)butanoyl)oxy)-3-(2-(−1-(5-carboxypentyl)-3,3-dimethylindolin-2-ylidene)ethylidene)cyclohex-1-en-1-yl)vinyl)-1,3,3-trimethyl-3H-indol-1-ium]
[1]; CM:ACN (4:1, v/v), 25° C.
  ΦF: 6.3%
  λmaxAb: 785 nm
  λmaxFl: 805 nm
[1]; PB and CM
  emission when excited at 532 nm: no detectable emission
[1]; PB:ACN (4:1, v/v), 25° C.
  ΦF: 2.9%
  ε: 160,000 M^−1cm^−1
  λmaxFl: 795 nm
[1]; [8]
  λmaxAb: 775 nm

## CC1(C)C(/C=C/C2=C3Oc4cc(O)ccc4C=C3CCC2)=[N+](CCCCCC(=O)O)c2ccccc21 [XCy, (E)-1-(5-carboxypentyl)-2-(2-(6-hydroxy-2,3-dihydro-1H-xanthen-4-yl)vinyl)-3,3-dimethyl-3H-indol-1-ium]
[2]; [9]
  λmaxAbs: 679 nm
  λmaxFl: 713 nm
[2]; [10]
  λmaxAbs: 681 nm
  λmaxFl: 708 nm
[2]
  absorption maximum: about 680 nm
  fluorescence: around 710 nm

## octreotide amide
[7]
  Growth Inhibition (GI) / toxicity: neither free OCT, nor free CLB exhibited detectible toxicity
[6]
  Growth Inhibition (GI) / toxicity: neither free OCT, nor free CLB exhibited detectible toxicity

## O=C(O)CCCc1ccc(N(CCCl)CCCl)cc1 [CLB, chlorambucil]
[7]
  Growth Inhibition (GI) / toxicity: neither free OCT, nor free CLB exhibited detectible toxicity
[6]
  Growth Inhibition (GI) / toxicity: neither free OCT, nor free CLB exhibited detectible toxicity
